# Results reported in PubChem BioAssay (NCI).
# Several values for one entry are separate records, joined by “and”; a condition that tells them apart may be missing. Equal entries are not always repeated.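 How tested: cells in 96-well plates exposed to compound for 48 hours at five concentrations. The concentration for 50% growth inhibition is given as GI50. TGI: total growth inhibition.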
# Key:
# Assay in all cases: DTP human tumour cell line panel, 48 h
# EKVX NSCLC = system: EKVX NSCLC
# HT29 colon = system: HT29 colon
# RPMI-8226 leukemia = system: RPMI-8226 leukemia
# SF-268 CNS = system: SF-268 CNS
# SNB-19 CNS = system: SNB-19 CNS
# SW-620 colon = system: SW-620 colon
# TK-10 renal = system: TK-10 renal
# UACC-62 melanoma = system: UACC-62 melanoma
# LXFL 529 NSCLC = system: LXFL 529 NSCLC
# DMS 114 small cell lung = system: DMS 114 small cell lung
SMILES,GI50 (EKVX NSCLC) [µM],TGI (EKVX NSCLC) [µM],GI50 (HT29 colon),TGI (HT29 colon) [µM],GI50 (RPMI-8226 leukemia),TGI (RPMI-8226 leukemia) [µM],GI50 (SF-268 CNS),TGI (SF-268 CNS) [µM],GI50 (SNB-19 CNS),TGI (SNB-19 CNS) [µM],GI50 (SW-620 colon),TGI (SW-620 colon) [µM],GI50 (TK-10 renal),TGI (TK-10 renal) [µM],GI50 (UACC-62 melanoma),TGI (UACC-62 melanoma) [µM],GI50 (LXFL 529 NSCLC) [µM],TGI (LXFL 529 NSCLC) [µM],TGI (DMS 114 small cell lung) [µM]
CN(CCO)c1ccc(N2Cc3ccccc3OC3=C2C(=O)c2c(O)ccc(O)c2C3=O)cn1,0.284,1.45,0.172 µM,0.468,0.227 µM,0.713,0.274 µM,0.938,0.465 µM,1.67,0.0728 µM,0.328,0.248 µM,0.632,0.21 µM,0.498,–,–,–
N#CC1=C(N)Oc2cc(O)ccc2C1c1cccc2ccccc12 (stereo not drawn),17,> 100,8.89 µM,27,10.9 µM,41.7,14.5 µM,40.4,16.3 µM,37.3,3.95 µM,> 100,15.6 µM,45.6,12.6 µM,27.3,–,–,–
COc1c[c]([Hg][O]C(C)=O)c(OC)c(NC(=O)CC(C)=O)[c]1[Hg][O]C(C)=O,19.9,36.3,4.21 µM,19.6,4.22 µM,33.4,13.6 µM,18.9,5.56 µM,12.3,–,–,4.46 µM,14,11.4 µM,24.1,1.42,2.85,–
O=C1OCC2C1C1c3ccccc3C(O)c3ccccc3C21 (stereo not drawn),–,> 100,–,> 100,–,> 100,–,> 100,–,–,–,> 100,–,> 100,–,> 100,–,> 100,> 100
COc1ccc(-c2coc3c4c(ccc3c2=O)OCO4)cc1OC,–,> 100,–,> 100,–,> 100,–,> 100,–,82,–,> 100,–,> 100,–,> 100,–,–,–
CC(=O)[O][Ga]([Br])[O]C(C)=O,–,–,> 100 µM,> 100,> 100 µM,> 100,> 100 µM,> 100,> 100 µM,> 100,> 100 µM,> 100,> 100 µM,> 100,> 100 µM,> 100,> 100,> 100,–
COC(=O)[C@H]1C=C[C@@H](C)n2c(=O)c3cc4ccccc4cc3c(=O)n21,–,> 100,–,–,–,> 100,–,> 100,–,> 100,–,> 100,–,> 100,–,–,–,> 100,> 100
NCCSc1nc(-c2ccccc2)c(-c2ccccc2)o1,–,> 100,–,> 100,–,> 100,–,> 100,–,> 100,–,> 100,–,> 100,–,> 100,–,–,–
O[C@H](c1cc(C(F)(F)F)nc2c(C(F)(F)F)cccc12)[C@@H]1CCCCN1,4.32,17.3,2.49 µM,5.98,11.2 µM,42.8,3.54 µM,15,7.19 µM,20.9,2.05 µM,4.52,2.85 µM,10.4,5.9 µM,17.5,–,–,–
O=CN1CCN(CC(O)CN2CCCCC2)CC1 (stereo not drawn),–,> 100,–,> 100,–,> 100,–,> 100,–,> 100,–,> 100,–,> 100,–,> 100,–,–,–
C=C1C(=O)O[C@H]2[C@H]1CC/C(COC(=O)/C=C\C(=O)NCc1ccc(Cn3c(=O)sn(CCCC)c3=O)cc1)=C\CC[C@@]1(C)O[C@@H]21,1.48,2.85,0.472 µM,2.07,0.274 µM,0.949,1.39 µM,2.78,1.53 µM,2.93,0.201 µM,0.443,0.61 µM,1.78,1.2 µM,2.53,–,–,–
Cc1nc2sc3c(c2c(=O)[nH]1)CCCC3,–,> 100,–,> 100,–,> 100,–,> 100,–,> 100,–,> 100,–,> 100,–,> 100,–,–,–
CC1=NC(=Cc2cc(Br)cc(Br)c2)C(=O)N1n1c(-c2ccccc2)nc2ccccc2c1=O,–,> 100,–,> 100,–,> 100,–,> 100,–,> 100,–,> 100,–,> 100,–,> 100,–,–,–
CCN1CCC(O)(/C=C/c2ccc(C)cc2)C(C(=O)/C=C/c2ccc(C)cc2)C1 (stereo not drawn),–,26.3,–,6.89,–,10.8,–,24.6,–,23.5,–,3.36,–,14.4,–,12.3,–,–,–
CCCN1CN(C(C(=O)N[C@@H]2C(=O)N3C2SC(C)(C)C3C(=O)O)c2ccc(O)cc2)CSC1=S (stereo partly drawn),–,> 100,–,> 100,–,> 100,–,> 100,–,> 100,–,–,–,> 100,–,> 100,–,> 100,65.3
Cc1cc(S(=O)(=O)O)c(NC(=O)C(=O)Cc2cc(=O)oc3cc(O)ccc23)cc1Cl,–,> 100,–,> 100,–,–,–,> 100,–,> 100,–,> 100,–,> 100,–,> 100,–,–,> 100
O=C1c2ccccc2-c2c1c1ccccc1c(=O)n2CCCCl,18.1,> 100,37.2 µM,> 100,61.7 µM,> 100,10.3 µM,80.8,34.2 µM,> 100,8.75 µM,> 100,3.26 µM,14.3,6.75 µM,23.9,–,–,–
C/C(CC(=O)Nc1cccc(Cl)c1C)=N\NC(=O)c1ccncc1,–,> 100,–,> 100,–,> 100,–,> 100,–,–,–,> 100,–,> 100,–,> 100,–,> 100,> 100
COC(=O)[C@@H](C)C[C@H](Cc1ccccc1)NC(=O)c1csc([C@@H](C[C@H](C(C)C)N(C)C(=O)[C@@H](NC(=O)[C@H]2CCCCN2C)C2CCCCC2)OC(C)=O)n1,0.00278,–,0.000314 µM and 0.0025 µM,4.95,0.000324 µM and 0.0025 µM,3.64,0.00375 µM and 0.0025 µM,> 25,0.000718 µM and 0.0025 µM,> 25,0.000424 µM and 0.0025 µM,> 25,0.0181 µM and 0.0025 µM,> 25,0.000354 µM and 0.0025 µM,> 25,–,–,–
